Assay results: the kinase profiling compilation of Christmann-Franck et al. (2016)

How the values were obtained:
Assay in all cases: radiometric filter-binding kinase assay
MAPK1 (human) = MAPK1 (human) (UniProt P28482); details: compound 100.0 µM; ATP 20 µM
RPS6KA3 KD1 KD2 (human) = RPS6KA3 KD1 KD2 (human) (UniProt P51812); details: compound 100.0 µM; ATP 50 µM
TTK (human) = TTK (human) (UniProt P33981); details: compound 100.0 µM; ATP 20 µM
[1] = test system: SGK1 (human), O00141 [S422D]; details: compound 100.0 µM; ATP 20 µM
IGF1R (human) = IGF1R (human) (UniProt P08069); details: compound 100.0 µM; ATP 5 µM
Chain of IGF1R (human) (P08069 whole entry, looked up): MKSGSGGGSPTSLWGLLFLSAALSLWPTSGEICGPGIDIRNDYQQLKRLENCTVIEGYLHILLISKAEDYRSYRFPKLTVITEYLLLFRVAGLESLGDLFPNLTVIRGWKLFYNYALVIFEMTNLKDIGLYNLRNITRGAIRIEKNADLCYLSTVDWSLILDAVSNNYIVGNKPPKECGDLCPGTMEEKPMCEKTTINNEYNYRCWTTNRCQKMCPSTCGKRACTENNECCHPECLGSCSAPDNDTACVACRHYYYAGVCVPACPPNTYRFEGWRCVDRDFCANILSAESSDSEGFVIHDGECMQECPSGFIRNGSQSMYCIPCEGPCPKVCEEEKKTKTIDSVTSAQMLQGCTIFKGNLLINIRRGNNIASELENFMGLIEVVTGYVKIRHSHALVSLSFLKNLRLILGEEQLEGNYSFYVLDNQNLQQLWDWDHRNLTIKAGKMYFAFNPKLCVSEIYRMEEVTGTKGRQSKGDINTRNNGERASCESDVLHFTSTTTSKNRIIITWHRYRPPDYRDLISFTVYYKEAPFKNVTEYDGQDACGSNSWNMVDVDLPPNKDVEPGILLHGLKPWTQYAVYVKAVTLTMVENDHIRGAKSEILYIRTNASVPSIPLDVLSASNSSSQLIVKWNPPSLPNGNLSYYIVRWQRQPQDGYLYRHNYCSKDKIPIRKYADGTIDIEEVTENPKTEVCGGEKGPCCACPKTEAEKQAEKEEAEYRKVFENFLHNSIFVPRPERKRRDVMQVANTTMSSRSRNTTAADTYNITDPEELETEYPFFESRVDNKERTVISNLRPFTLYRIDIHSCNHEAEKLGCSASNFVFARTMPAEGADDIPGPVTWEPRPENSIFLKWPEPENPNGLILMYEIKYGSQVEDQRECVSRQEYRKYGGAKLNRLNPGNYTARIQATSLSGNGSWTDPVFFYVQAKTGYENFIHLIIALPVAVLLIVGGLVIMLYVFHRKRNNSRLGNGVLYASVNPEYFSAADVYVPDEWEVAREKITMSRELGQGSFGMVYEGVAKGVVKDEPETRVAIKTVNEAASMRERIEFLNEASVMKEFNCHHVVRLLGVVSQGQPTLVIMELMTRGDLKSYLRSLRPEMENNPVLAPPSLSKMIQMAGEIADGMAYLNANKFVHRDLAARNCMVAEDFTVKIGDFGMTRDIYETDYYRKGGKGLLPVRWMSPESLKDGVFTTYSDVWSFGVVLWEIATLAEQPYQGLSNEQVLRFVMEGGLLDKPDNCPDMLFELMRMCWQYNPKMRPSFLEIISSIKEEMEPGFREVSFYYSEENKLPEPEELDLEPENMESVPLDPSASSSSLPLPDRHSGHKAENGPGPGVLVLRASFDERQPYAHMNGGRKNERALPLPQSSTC

FLT1 (human) = FLT1 (human) (UniProt P17948); details: compound 100.0 µM; ATP 20 µM
DYRK2 (human) = DYRK2 (human) (UniProt Q92630); details: compound 100.0 µM; ATP 50 µM
[2] = test system: PAK2 (human), Q13177 [T402E]; details: compound 100.0 µM; ATP 20 µM
MAP3K11 (human) = MAP3K11 (human) (UniProt Q16584); details: compound 100.0 µM; ATP 20 µM
MAPK3 (human) = MAPK3 (human) (UniProt P27361); details: compound 100.0 µM; ATP 5 µM
INSR (human) = INSR (human) (UniProt P06213); details: compound 100.0 µM; ATP 20 µM
[3] = target: STK11 CAB39 STRADA (human) (UniProt Q9Y376+Q7RTN6+Q15831); details: compound 100.0 µM; ATP 20 µM
IKBKB (human) = IKBKB (human) (UniProt O14920); details: compound 100.0 µM; ATP 5 µM
Chain of IKBKB (human) (O14920 whole entry, looked up): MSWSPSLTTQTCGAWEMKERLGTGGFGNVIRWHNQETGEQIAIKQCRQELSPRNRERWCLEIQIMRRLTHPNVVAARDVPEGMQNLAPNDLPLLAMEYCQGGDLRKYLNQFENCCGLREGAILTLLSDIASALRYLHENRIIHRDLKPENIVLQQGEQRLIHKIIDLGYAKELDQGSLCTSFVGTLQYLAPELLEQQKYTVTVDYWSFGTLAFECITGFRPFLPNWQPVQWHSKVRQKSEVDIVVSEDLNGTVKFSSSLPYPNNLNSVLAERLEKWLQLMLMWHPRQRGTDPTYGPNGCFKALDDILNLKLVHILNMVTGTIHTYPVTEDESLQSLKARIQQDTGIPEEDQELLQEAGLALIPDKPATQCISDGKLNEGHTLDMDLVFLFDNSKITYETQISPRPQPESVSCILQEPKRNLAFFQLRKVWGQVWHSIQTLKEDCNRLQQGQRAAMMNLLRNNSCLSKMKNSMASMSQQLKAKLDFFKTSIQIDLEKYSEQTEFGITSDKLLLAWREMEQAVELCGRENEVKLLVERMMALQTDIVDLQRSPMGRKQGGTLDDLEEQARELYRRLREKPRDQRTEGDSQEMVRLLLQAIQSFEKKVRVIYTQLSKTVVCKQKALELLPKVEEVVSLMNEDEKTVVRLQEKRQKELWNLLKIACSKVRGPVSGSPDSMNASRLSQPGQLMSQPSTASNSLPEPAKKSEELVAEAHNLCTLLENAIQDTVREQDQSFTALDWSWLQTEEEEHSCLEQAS

MAPKAPK5 (human) = MAPKAPK5 (human) (UniProt Q8IW41); details: compound 100.0 µM; ATP 20 µM
Chain of MAPKAPK5 (human) (Q8IW41 whole entry, looked up): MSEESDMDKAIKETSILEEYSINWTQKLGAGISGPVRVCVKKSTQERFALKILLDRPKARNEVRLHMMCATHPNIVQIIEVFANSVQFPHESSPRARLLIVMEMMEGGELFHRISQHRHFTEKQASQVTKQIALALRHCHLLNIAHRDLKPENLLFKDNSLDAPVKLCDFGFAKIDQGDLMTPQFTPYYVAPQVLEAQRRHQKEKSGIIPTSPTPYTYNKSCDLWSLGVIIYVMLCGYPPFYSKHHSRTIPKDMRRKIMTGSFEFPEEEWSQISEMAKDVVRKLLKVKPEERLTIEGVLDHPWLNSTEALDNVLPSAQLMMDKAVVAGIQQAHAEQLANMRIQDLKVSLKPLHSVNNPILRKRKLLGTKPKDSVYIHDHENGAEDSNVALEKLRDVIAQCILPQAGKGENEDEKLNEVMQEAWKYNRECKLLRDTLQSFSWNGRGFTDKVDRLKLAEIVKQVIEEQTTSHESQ

PAK4 (human) = PAK4 (human) (UniProt O96013); details: compound 100.0 µM; ATP 5 µM
Chain of PAK4 (human) (O96013 whole entry, looked up): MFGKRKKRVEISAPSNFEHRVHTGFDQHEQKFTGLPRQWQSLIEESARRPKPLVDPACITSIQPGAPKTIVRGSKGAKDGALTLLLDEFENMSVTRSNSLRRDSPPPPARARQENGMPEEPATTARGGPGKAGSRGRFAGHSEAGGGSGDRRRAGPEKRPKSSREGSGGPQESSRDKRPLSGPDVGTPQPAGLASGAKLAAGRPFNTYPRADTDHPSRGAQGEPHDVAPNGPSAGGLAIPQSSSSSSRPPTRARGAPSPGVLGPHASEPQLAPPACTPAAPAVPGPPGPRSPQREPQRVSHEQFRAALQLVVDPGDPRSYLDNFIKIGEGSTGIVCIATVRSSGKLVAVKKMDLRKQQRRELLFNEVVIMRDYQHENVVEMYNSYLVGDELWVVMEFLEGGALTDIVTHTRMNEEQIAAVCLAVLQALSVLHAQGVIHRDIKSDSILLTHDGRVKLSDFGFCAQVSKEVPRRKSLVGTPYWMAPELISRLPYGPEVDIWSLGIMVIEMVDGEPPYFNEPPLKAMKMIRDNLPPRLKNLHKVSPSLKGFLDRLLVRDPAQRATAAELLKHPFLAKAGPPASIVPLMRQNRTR

MAPK9 (human) = MAPK9 (human) (UniProt P45984); details: compound 100.0 µM; ATP 20 µM
Chain of MAPK9 (human) (P45984 whole entry, looked up): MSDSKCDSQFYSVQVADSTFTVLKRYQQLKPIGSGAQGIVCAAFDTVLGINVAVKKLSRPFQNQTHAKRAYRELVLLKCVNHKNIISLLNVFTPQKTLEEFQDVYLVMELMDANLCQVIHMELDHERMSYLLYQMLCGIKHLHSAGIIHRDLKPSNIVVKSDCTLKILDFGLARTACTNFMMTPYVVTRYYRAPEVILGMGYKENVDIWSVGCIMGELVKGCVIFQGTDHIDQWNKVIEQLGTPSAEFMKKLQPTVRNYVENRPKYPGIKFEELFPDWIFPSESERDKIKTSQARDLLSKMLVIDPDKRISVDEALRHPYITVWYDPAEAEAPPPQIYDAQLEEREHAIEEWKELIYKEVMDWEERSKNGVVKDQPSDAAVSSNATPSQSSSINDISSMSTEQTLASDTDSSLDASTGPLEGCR

JAK2 JH1 JH2 (human) = JAK2 JH1 JH2 (human) (UniProt O60674); details: compound 100.0 µM; ATP 5 µM
MELK (human) = MELK (human) (UniProt Q14680); details: compound 100.0 µM; ATP 50 µM
ABL1 (human) = ABL1 (human) (UniProt P00519); details: compound 100.0 µM; ATP 5 µM
PDPK1 (human) = PDPK1 (human) (UniProt O15530); details: compound 100.0 µM
CHEK2 (human) = CHEK2 (human) (UniProt O96017); details: compound 100.0 µM; ATP 20 µM
HIPK2 (human) = HIPK2 (human) (UniProt Q9H2X6); details: compound 100.0 µM; ATP 5 µM
CDK2 CCNA2 (human) = CDK2 CCNA2 (human) (UniProt P20248+P24941); details: compound 100.0 µM; ATP 20 µM
MAPK13 (human) = MAPK13 (human) (UniProt O15264); details: compound 100.0 µM; ATP 5 µM
YES1 (human) = YES1 (human) (UniProt P07947); details: compound 100.0 µM; ATP 20 µM
CSNK2A1 (human) = CSNK2A1 (human) (UniProt P68400); details: compound 100.0 µM; ATP 5 µM
MKNK2 (human) = MKNK2 (human) (UniProt Q9HBH9); details: compound 100.0 µM; ATP 50 µM
ZAP70 (human) = ZAP70 (human) (UniProt P43403); details: compound 100.0 µM; ATP 5 µM
INSRR (human) = INSRR (human) (UniProt P14616); details: compound 100.0 µM; ATP 5 µM
PKN2 (human) = PKN2 (human) (UniProt Q16513); details: compound 100.0 µM; ATP 5 µM
Chain of PKN2 (human) (Q16513 whole entry, looked up): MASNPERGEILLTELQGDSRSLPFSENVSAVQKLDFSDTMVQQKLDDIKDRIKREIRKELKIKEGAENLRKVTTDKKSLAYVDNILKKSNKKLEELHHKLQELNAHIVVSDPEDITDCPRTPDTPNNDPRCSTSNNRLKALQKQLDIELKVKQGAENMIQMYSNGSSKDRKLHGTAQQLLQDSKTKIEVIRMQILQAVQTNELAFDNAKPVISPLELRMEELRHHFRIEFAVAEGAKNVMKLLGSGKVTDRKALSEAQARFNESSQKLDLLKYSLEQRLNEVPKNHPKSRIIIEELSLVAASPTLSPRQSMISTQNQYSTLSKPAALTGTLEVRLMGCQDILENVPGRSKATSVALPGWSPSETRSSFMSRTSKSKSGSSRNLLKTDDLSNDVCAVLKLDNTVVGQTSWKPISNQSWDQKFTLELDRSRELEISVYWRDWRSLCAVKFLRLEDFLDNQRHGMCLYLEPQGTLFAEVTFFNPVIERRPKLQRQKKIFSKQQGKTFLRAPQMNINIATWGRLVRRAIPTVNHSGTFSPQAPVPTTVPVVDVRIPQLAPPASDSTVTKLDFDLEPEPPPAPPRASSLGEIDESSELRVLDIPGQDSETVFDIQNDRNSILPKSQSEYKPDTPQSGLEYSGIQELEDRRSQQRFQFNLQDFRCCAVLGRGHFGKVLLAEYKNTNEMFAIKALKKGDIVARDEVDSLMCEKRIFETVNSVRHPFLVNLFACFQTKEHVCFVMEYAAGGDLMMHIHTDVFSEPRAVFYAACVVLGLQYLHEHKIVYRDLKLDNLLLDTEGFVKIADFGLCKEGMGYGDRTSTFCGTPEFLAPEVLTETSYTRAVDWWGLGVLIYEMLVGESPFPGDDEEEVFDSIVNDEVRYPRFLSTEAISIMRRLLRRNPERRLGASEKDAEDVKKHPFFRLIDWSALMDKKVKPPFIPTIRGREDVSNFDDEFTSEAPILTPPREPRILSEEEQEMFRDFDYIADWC

NEK2 (human) = NEK2 (human) (UniProt P51955); details: compound 100.0 µM; ATP 50 µM
EPHB2 (human) = EPHB2 (human) (UniProt P29323); details: compound 100.0 µM; ATP 20 µM
MAPKAPK3 (human) = MAPKAPK3 (human) (UniProt Q16644); details: compound 100.0 µM; ATP 20 µM
MINK1 (human) = MINK1 (human) (UniProt Q8N4C8); details: compound 100.0 µM; ATP 50 µM
MAPK14 (human) = MAPK14 (human) (UniProt Q16539); details: compound 100.0 µM; ATP 50 µM
Chain of MAPK14 (human) (Q16539 whole entry, looked up): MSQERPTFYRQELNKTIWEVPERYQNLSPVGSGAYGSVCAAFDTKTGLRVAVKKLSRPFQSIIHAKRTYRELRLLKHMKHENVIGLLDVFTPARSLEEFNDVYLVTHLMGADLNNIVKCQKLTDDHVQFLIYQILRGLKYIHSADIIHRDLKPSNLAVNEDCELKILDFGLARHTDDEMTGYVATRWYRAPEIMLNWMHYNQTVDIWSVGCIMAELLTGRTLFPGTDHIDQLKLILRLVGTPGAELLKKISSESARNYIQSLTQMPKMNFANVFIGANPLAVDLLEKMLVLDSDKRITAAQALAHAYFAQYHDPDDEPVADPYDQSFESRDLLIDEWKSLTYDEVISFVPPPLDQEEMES

RPS6KA5 KD1 KD2 (human) = RPS6KA5 KD1 KD2 (human) (UniProt O75582); details: compound 100.0 µM; ATP 20 µM
[4] = test system: AKT2 (human), P31751 [S474D]; details: compound 100.0 µM; ATP 50 µM
SRPK1 (human) = SRPK1 (human) (UniProt Q96SB4); details: compound 100.0 µM; ATP 50 µM
PIM2 (human) = PIM2 (human) (UniProt Q9P1W9); details: compound 100.0 µM; ATP 5 µM

Row | inhibition (MAPK1 (human)) [%] | inhibition (RPS6KA3 KD1 KD2 (human)) [%] | inhibition (TTK (human)) [%] | inhibition [1] [%] | inhibition (IGF1R (human)) [%] | inhibition (FLT1 (human)) [%] | inhibition (DYRK2 (human)) [%] | inhibition [2] [%] | inhibition (MAP3K11 (human)) [%] | inhibition (MAPK3 (human)) [%] | inhibition (INSR (human)) [%] | inhibition [3] [%] | inhibition (IKBKB (human)) [%] | inhibition (MAPKAPK5 (human)) [%] | inhibition (PAK4 (human)) [%] | inhibition (MAPK9 (human)) [%] | inhibition (JAK2 JH1 JH2 (human)) [%] | inhibition (MELK (human)) [%] | inhibition (ABL1 (human)) [%] | inhibition (PDPK1 (human); ATP 20 µM) [%] | Structure (SMILES) | other results
1 | 7 | 9 | 4 | 16 | 11 | 69 | 30 | 0 | 17 | 13 | 60 | 0 | 10 | 6 | 47 | 1 | 25 | 17 | 48 | 15 | CC(=O)Nc1nc2cnc(-c3ccccc3)cn2n1 | inhibition (PDPK1 (human); ATP 50 µM): 13%; inhibition (CHEK2 (human)): 25%; inhibition (HIPK2 (human)): 49%; inhibition (CDK2 CCNA2 (human)): 34%; inhibition (MAPK13 (human)): 1%; inhibition (YES1 (human)): 35%; inhibition (CSNK2A1 (human)): 11%; inhibition (MKNK2 (human)): 35%; inhibition (ZAP70 (human)): 16%; inhibition (INSRR (human)): 60%; inhibition (PKN2 (human)): 13%; inhibition (NEK2 (human)): 25%; inhibition (EPHB2 (human)): 4%; inhibition (MAPKAPK3 (human)): 2%; inhibition (MINK1 (human)): 58%; inhibition (MAPK14 (human)): 10%; inhibition (RPS6KA5 KD1 KD2 (human)): 11%; inhibition [4]: 22%; inhibition (SRPK1 (human)): 25%; inhibition (PIM2 (human)): 11%
2 | 0 | 23 | 0 | 0 | 0 | 9 | 0 | 0 | 0 | 10 | 0 | 0 | 0 | 17 | 0 | 0 | 9 | 0 | 18 | 0 | CC(=O)Nc1nc2cnc(-c3c(C)cccc3C)cn2n1 | inhibition (PDPK1 (human); ATP 50 µM): 0%; inhibition (CHEK2 (human)): 0%; inhibition (HIPK2 (human)): 18%; inhibition (CDK2 CCNA2 (human)): 0%; inhibition (MAPK13 (human)): 19%; inhibition (YES1 (human)): 17%; inhibition (CSNK2A1 (human)): 0%; inhibition (MKNK2 (human)): 0%; inhibition (ZAP70 (human)): 9%; inhibition (INSRR (human)): 0%; inhibition (PKN2 (human)): 0%; inhibition (NEK2 (human)): 0%; inhibition (EPHB2 (human)): 0%; inhibition (MAPKAPK3 (human)): 74%; inhibition (MINK1 (human)): 0%; inhibition (MAPK14 (human)): 0%; inhibition (RPS6KA5 KD1 KD2 (human)): 0%; inhibition [4]: 43%; inhibition (SRPK1 (human)): 10%; inhibition (PIM2 (human)): 5%
3 | 4 | 11 | 0 | 0 | 0 | 0 | 27 | 0 | 0 | 13 | 0 | 0 | 0 | 0 | 3 | 3 | 0 | 0 | 3 | 1 | O=C(Nc1cnc2[nH]cnn2c1=O)c1ccccc1 | inhibition (PDPK1 (human); ATP 50 µM): 0%; inhibition (CHEK2 (human)): 0%; inhibition (HIPK2 (human)): 0%; inhibition (CDK2 CCNA2 (human)): 0%; inhibition (MAPK13 (human)): 0%; inhibition (YES1 (human)): 0%; inhibition (CSNK2A1 (human)): 0%; inhibition (MKNK2 (human)): 10%; inhibition (ZAP70 (human)): 0%; inhibition (INSRR (human)): 0%; inhibition (PKN2 (human)): 0%; inhibition (NEK2 (human)): 0%; inhibition (EPHB2 (human)): 6%; inhibition (MAPKAPK3 (human)): 0%; inhibition (MINK1 (human)): 0%; inhibition (MAPK14 (human)): 0%; inhibition (RPS6KA5 KD1 KD2 (human)): 52%; inhibition [4]: 15%; inhibition (SRPK1 (human)): 0%; inhibition (PIM2 (human)): 0%
